Laboratory results: ChEMBL document CHEMBL1944514, “Fluorescence detection of single nucleotide polymorphisms using nucleic acid probe containing tricyclic base-linked acyclonucleoside” (Bioorg Med Chem Lett, 2012)
The source made the active and inactive calls. The rule behind the calls is not given here.

What was measured:
Assay type in all cases: nucleic-acid assay
[1] = tested on: Nucleic Acid; assay: Binding affinity to 3'-r(CUUCCAGUUACAUAGAGA)-5' RNA assessed as fluorescence quenching by spectrophotometry
[2] = tested on: Nucleic Acid; assay: Binding affinity to 3'-r(CUUCCAGUUCCAUAGAGA)-5' RNA assessed as fluorescence quenching by spectrophotometry
[3] = tested on: Nucleic Acid; assay: Binding affinity to 3'-r(CUUCCAGUUGCAUAGAGA)-5' RNA assessed as fluorescence quenching by spectrophotometry
[4] = tested on: Nucleic Acid; assay: Binding affinity to 3'-r(CUUCCAGUUUCAUAGAGA)-5' RNA assessed as fluorescence quenching by spectrophotometry

Cc1cn([C@H]2C[C@H](OP(=O)(O)OC[C@H]3O[C@@H](n4ccc(N)nc4=O)C[C@@H]3OP(=O)(O)OC[C@H]3O[C@@H](n4cnc5c(N)ncnc54)C[C@@H]3OP(=O)(O)OC[C@H]3O[C@@H](n4cnc5c(N)ncnc54)C[C@@H]3OP(=O)(O)OC[C@H]3O[C@@H](n4ccc(N)nc4=O)C[C@@H]3OP(=O)(O)OC[C@H](Cn3cnc4cc5c(N)ncnc5nc43)OP(=O)(O)OC[C@H]3O[C@@H](n4cnc5c(=O)[nH]c(N)nc54)C[C@@H]3OP(=O)(O)CC[C@H]3O[C@@H](n4cc(C)c(=O)[nH]c4=O)C[C@@H]3OP(=O)(O)OC[C@H]3O[C@@H](n4cnc5c(N)ncnc54)C[C@@H]3OP(=O)(O)OC[C@H]3O[C@@H](n4cc(C)c(=O)[nH]c4=O)C[C@@H]3OP(=O)(O)OC[C@H]3O[C@@H](n4ccc(N)nc4=O)C[C@@H]3OP(=O)(O)OC[C@H]3O[C@@H](n4cc(C)c(=O)[nH]c4=O)C[C@@H]3OP(=O)(O)OC[C@H]3O[C@@H](n4ccc(N)nc4=O)C[C@@H]3OP(=O)(O)OC[C@H]3O[C@@H](n4cc(C)c(=O)[nH]c4=O)C[C@@H]3O)[C@@H](COP(=O)(O)O[C@H]3C[C@H](n4cnc5c(=O)[nH]c(N)nc54)O[C@@H]3COP(=O)(O)O[C@H]3C[C@H](n4cnc5c(=O)[nH]c(N)nc54)O[C@@H]3COP(=O)(O)O[C@H]3C[C@H](n4cnc5c(N)ncnc54)O[C@@H]3COP(=O)(O)O[C@H]3C[C@H](n4cnc5c(N)ncnc54)O[C@@H]3COP(=O)(O)O[C@H]3C[C@H](n4cnc5c(=O)[nH]c(N)nc54)O[C@@H]3CO)O2)c(=O)nc1N
Activity [1]: Active | Activity [2]: Active | Activity [3]: Active | Activity [4]: Active

Cc1cn([C@H]2C[C@H](OP(=O)(O)OC[C@H]3O[C@@H](n4ccc(N)nc4=O)C[C@@H]3OP(=O)(O)OC[C@H]3O[C@@H](n4cnc5c(N)ncnc54)C[C@@H]3OP(=O)(O)OC[C@H]3O[C@@H](n4cnc5c(N)ncnc54)C[C@@H]3OP(=O)(O)OC[C@H]3O[C@@H](n4cc(C)c(=O)[nH]c4=O)C[C@@H]3OP(=O)(O)OC[C@H](Cn3cnc4cc5c(N)ncnc5nc43)OP(=O)(O)OC[C@H]3O[C@@H](n4cnc5c(=O)[nH]c(N)nc54)C[C@@H]3OP(=O)(O)CC[C@H]3O[C@@H](n4cc(C)c(=O)[nH]c4=O)C[C@@H]3OP(=O)(O)OC[C@H]3O[C@@H](n4cnc5c(N)ncnc54)C[C@@H]3OP(=O)(O)OC[C@H]3O[C@@H](n4cc(C)c(=O)[nH]c4=O)C[C@@H]3OP(=O)(O)OC[C@H]3O[C@@H](n4ccc(N)nc4=O)C[C@@H]3OP(=O)(O)OC[C@H]3O[C@@H](n4cc(C)c(=O)[nH]c4=O)C[C@@H]3OP(=O)(O)OC[C@H]3O[C@@H](n4ccc(N)nc4=O)C[C@@H]3OP(=O)(O)OC[C@H]3O[C@@H](n4cc(C)c(=O)[nH]c4=O)C[C@@H]3O)[C@@H](COP(=O)(O)O[C@H]3C[C@H](n4cnc5c(=O)[nH]c(N)nc54)O[C@@H]3COP(=O)(O)O[C@H]3C[C@H](n4cnc5c(=O)[nH]c(N)nc54)O[C@@H]3COP(=O)(O)O[C@H]3C[C@H](n4cnc5c(N)ncnc54)O[C@@H]3COP(=O)(O)O[C@H]3C[C@H](n4cnc5c(N)ncnc54)O[C@@H]3COP(=O)(O)O[C@H]3C[C@H](n4cnc5c(=O)[nH]c(N)nc54)O[C@@H]3CO)O2)c(=O)nc1N
Activity [1]: inactive | Activity [2]: Active | Activity [3]: Active | Activity [4]: Active

Cc1cn([C@H]2C[C@H](OP(=O)(O)OC[C@H]3O[C@@H](n4ccc(N)nc4=O)C[C@@H]3OP(=O)(O)OC[C@H]3O[C@@H](n4cnc5c(N)ncnc54)C[C@@H]3OP(=O)(O)OC[C@H]3O[C@@H](n4cnc5c(N)ncnc54)C[C@@H]3OP(=O)(O)OC[C@H](Cn3cnc4cc5c(N)ncnc5nc43)OP(=O)(O)OC[C@H]3O[C@@H](n4cnc5c(N)ncnc54)C[C@@H]3OP(=O)(O)OC[C@H]3O[C@@H](n4cnc5c(=O)[nH]c(N)nc54)C[C@@H]3OP(=O)(O)CC[C@H]3O[C@@H](n4cc(C)c(=O)[nH]c4=O)C[C@@H]3OP(=O)(O)OC[C@H]3O[C@@H](n4cnc5c(N)ncnc54)C[C@@H]3OP(=O)(O)OC[C@H]3O[C@@H](n4cc(C)c(=O)[nH]c4=O)C[C@@H]3OP(=O)(O)OC[C@H]3O[C@@H](n4ccc(N)nc4=O)C[C@@H]3OP(=O)(O)OC[C@H]3O[C@@H](n4cc(C)c(=O)[nH]c4=O)C[C@@H]3OP(=O)(O)OC[C@H]3O[C@@H](n4ccc(N)nc4=O)C[C@@H]3OP(=O)(O)OC[C@H]3O[C@@H](n4cc(C)c(=O)[nH]c4=O)C[C@@H]3O)[C@@H](COP(=O)(O)O[C@H]3C[C@H](n4cnc5c(=O)[nH]c(N)nc54)O[C@@H]3COP(=O)(O)O[C@H]3C[C@H](n4cnc5c(=O)[nH]c(N)nc54)O[C@@H]3COP(=O)(O)O[C@H]3C[C@H](n4cnc5c(N)ncnc54)O[C@@H]3COP(=O)(O)O[C@H]3C[C@H](n4cnc5c(N)ncnc54)O[C@@H]3COP(=O)(O)O[C@H]3C[C@H](n4cnc5c(=O)[nH]c(N)nc54)O[C@@H]3CO)O2)c(=O)nc1N
Activity [1]: Active | Activity [2]: Active | Activity [3]: Active | Activity [4]: inactive

Cc1cn([C@H]2C[C@H](OP(=O)(O)OC[C@H]3O[C@@H](n4ccc(N)nc4=O)C[C@@H]3OP(=O)(O)OC[C@H]3O[C@@H](n4cnc5c(N)ncnc54)C[C@@H]3OP(=O)(O)OC[C@H]3O[C@@H](n4cnc5c(N)ncnc54)C[C@@H]3OP(=O)(O)OC[C@H]3O[C@@H](n4cnc5c(=O)[nH]c(N)nc54)C[C@@H]3OP(=O)(O)OC[C@H](Cn3cnc4cc5c(N)ncnc5nc43)OP(=O)(O)OC[C@H]3O[C@@H](n4cnc5c(=O)[nH]c(N)nc54)C[C@@H]3OP(=O)(O)CC[C@H]3O[C@@H](n4cc(C)c(=O)[nH]c4=O)C[C@@H]3OP(=O)(O)OC[C@H]3O[C@@H](n4cnc5c(N)ncnc54)C[C@@H]3OP(=O)(O)OC[C@H]3O[C@@H](n4cc(C)c(=O)[nH]c4=O)C[C@@H]3OP(=O)(O)OC[C@H]3O[C@@H](n4ccc(N)nc4=O)C[C@@H]3OP(=O)(O)OC[C@H]3O[C@@H](n4cc(C)c(=O)[nH]c4=O)C[C@@H]3OP(=O)(O)OC[C@H]3O[C@@H](n4ccc(N)nc4=O)C[C@@H]3OP(=O)(O)OC[C@H]3O[C@@H](n4cc(C)c(=O)[nH]c4=O)C[C@@H]3O)[C@@H](COP(=O)(O)O[C@H]3C[C@H](n4cnc5c(=O)[nH]c(N)nc54)O[C@@H]3COP(=O)(O)O[C@H]3C[C@H](n4cnc5c(=O)[nH]c(N)nc54)O[C@@H]3COP(=O)(O)O[C@H]3C[C@H](n4cnc5c(N)ncnc54)O[C@@H]3COP(=O)(O)O[C@H]3C[C@H](n4cnc5c(N)ncnc54)O[C@@H]3COP(=O)(O)O[C@H]3C[C@H](n4cnc5c(=O)[nH]c(N)nc54)O[C@@H]3CO)O2)c(=O)nc1N
Activity [1]: Active | Activity [2]: inactive | Activity [3]: Active | Activity [4]: Active
